Source: PubChem BioAssay (NCI)
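These data come from cells grown in 96-well plates and exposed to compound for 48 hours at five concentrations. Here, GI50 denotes the concentration required for 50% inhibition of growth. TGI: total growth inhibition.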

What was measured:
Test in all cases: NCI tumour cell line growth inhibition, 48 h
786-0 renal = tested on: 786-0 renal
A498 renal = tested on: A498 renal
A549 NSCLC = tested on: A549 NSCLC
ACHN renal = tested on: ACHN renal
BT-549 breast = tested on: BT-549 breast
CAKI-1 renal = tested on: CAKI-1 renal
CCRF-CEM leukemia = tested on: CCRF-CEM leukemia
COLO 205 colon = tested on: COLO 205 colon
DU-145 prostate = tested on: DU-145 prostate
EKVX NSCLC = tested on: EKVX NSCLC
HCC-2998 colon = tested on: HCC-2998 colon
HCT-116 colon = tested on: HCT-116 colon
HCT-15 colon = tested on: HCT-15 colon
HL-60(TB) leukemia = tested on: HL-60(TB) leukemia
HOP-62 NSCLC = tested on: HOP-62 NSCLC
HOP-92 NSCLC = tested on: HOP-92 NSCLC
HS 578T breast = tested on: HS 578T breast
HT29 colon = tested on: HT29 colon
IGROV1 ovarian = tested on: IGROV1 ovarian
K-562 leukemia = tested on: K-562 leukemia
KM12 colon = tested on: KM12 colon
LOX IMVI melanoma = tested on: LOX IMVI melanoma
M14 melanoma = tested on: M14 melanoma
MALME-3M melanoma = tested on: MALME-3M melanoma
MCF7 breast = tested on: MCF7 breast
MDA-MB-231 breast = tested on: MDA-MB-231 breast
MDA-MB-435 = tested on: MDA-MB-435
MOLT-4 leukemia = tested on: MOLT-4 leukemia
NCI-H226 lung = tested on: NCI-H226 lung
NCI-H23 lung = tested on: NCI-H23 lung
NCI-H460 lung = tested on: NCI-H460 lung
NCI-H522 lung = tested on: NCI-H522 lung
NCI/ADR-RES ovarian = tested on: NCI/ADR-RES ovarian
OVCAR-4 ovarian = tested on: OVCAR-4 ovarian
OVCAR-5 ovarian = tested on: OVCAR-5 ovarian
OVCAR-8 ovarian = tested on: OVCAR-8 ovarian
PC-3 prostate = tested on: PC-3 prostate
RPMI-8226 leukemia = tested on: RPMI-8226 leukemia
RXF 393 renal = tested on: RXF 393 renal
SF-268 CNS = tested on: SF-268 CNS
SF-295 CNS = tested on: SF-295 CNS
SF-539 CNS = tested on: SF-539 CNS
SK-MEL-2 melanoma = tested on: SK-MEL-2 melanoma
SK-MEL-28 melanoma = tested on: SK-MEL-28 melanoma
SK-MEL-5 melanoma = tested on: SK-MEL-5 melanoma
SK-OV-3 ovarian = tested on: SK-OV-3 ovarian
SN12C renal = tested on: SN12C renal
SNB-19 CNS = tested on: SNB-19 CNS
SNB-75 CNS = tested on: SNB-75 CNS
SR leukemia = tested on: SR leukemia
SW-620 colon = tested on: SW-620 colon
T-47D breast = tested on: T-47D breast
TK-10 renal = tested on: TK-10 renal
U251 CNS = tested on: U251 CNS
UACC-257 melanoma = tested on: UACC-257 melanoma
UACC-62 melanoma = tested on: UACC-62 melanoma
UO-31 renal = tested on: UO-31 renal

Compound `CCOc1ccc(NC2=C(Cl)C(=O)c3nc(C)ccc3C2=O)cc1` has a GI50 (786-0 renal) of 1720 nM, a TGI (786-0 renal) of 3190 nM and a GI50 (A498 renal) of 1560 nM. It also gave a TGI (A498 renal) of 5520 nM, a GI50 (A549 NSCLC) of 2090 nM and a TGI (A549 NSCLC) of 4640 nM. For the same compound, the GI50 (ACHN renal) was 1570 nM, the TGI (ACHN renal) was 2920 nM and the GI50 (BT-549 breast) was 1430 nM. It also gave a TGI (BT-549 breast) of 2800 nM, a GI50 (CAKI-1 renal) of 1600 nM and a TGI (CAKI-1 renal) of 2970 nM. The GI50 (CCRF-CEM leukemia) was 2110 nM, the TGI (CCRF-CEM leukemia) was greater than 100000 nM and the GI50 (COLO 205 colon) was 1860 nM. The TGI (COLO 205 colon) was 3640 nM, the GI50 (DU-145 prostate) was 1720 nM and the TGI (DU-145 prostate) was 3130 nM. It also gave a GI50 (EKVX NSCLC) of 1610 nM, a TGI (EKVX NSCLC) of 3120 nM and a GI50 (HCC-2998 colon) of 1760 nM. It also gave a TGI (HCC-2998 colon) of 3250 nM, a GI50 (HCT-116 colon) of 1320 nM and a TGI (HCT-116 colon) of 2790 nM. The GI50 (HCT-15 colon) was 1300 nM, the TGI (HCT-15 colon) was 2950 nM and the GI50 (HL-60(TB) leukemia) was 1470 nM. The TGI (HL-60(TB) leukemia) was 4180 nM, the GI50 (HOP-62 NSCLC) was 1740 nM and the TGI (HOP-62 NSCLC) was 3230 nM. For the same compound, the GI50 (HOP-92 NSCLC) was 2020 nM, the TGI (HOP-92 NSCLC) was 3510 nM and the GI50 (HS 578T breast) was 2220 nM. It also gave a TGI (HS 578T breast) of 5820 nM, a GI50 (HT29 colon) of 2870 nM and a TGI (HT29 colon) of 7080 nM. The GI50 (IGROV1 ovarian) was 1360 nM, the TGI (IGROV1 ovarian) was 2760 nM and the GI50 (K-562 leukemia) was 1170 nM. It also gave a TGI (K-562 leukemia) greater than 100000 nM, a GI50 (KM12 colon) of 1440 nM and a TGI (KM12 colon) of 3070 nM. For the same compound, the GI50 (LOX IMVI melanoma) was 1060 nM, the TGI (LOX IMVI melanoma) was 2330 nM and the GI50 (M14 melanoma) was 1680 nM. It also gave a TGI (M14 melanoma) of 3230 nM, a GI50 (MALME-3M melanoma) of 1650 nM and a TGI (MALME-3M melanoma) of 3160 nM. For the same compound, the GI50 (MCF7 breast) was 1540 nM, the TGI (MCF7 breast) was 3820 nM and the GI50 (MDA-MB-231 breast) was 1170 nM. The TGI (MDA-MB-231 breast) was 2500 nM, the GI50 (MDA-MB-435) was 442 nM and the TGI (MDA-MB-435) was 1530 nM. It also gave a GI50 (MOLT-4 leukemia) of 2490 nM, a TGI (MOLT-4 leukemia) greater than 100000 nM and a GI50 (NCI-H226 lung) of 1840 nM. For the same compound, the TGI (NCI-H226 lung) was 4520 nM, the GI50 (NCI-H23 lung) was 1350 nM and the TGI (NCI-H23 lung) was 2850 nM. The GI50 (NCI-H460 lung) was 3080 nM, the TGI (NCI-H460 lung) was 10400 nM and the GI50 (NCI-H522 lung) was 1750 nM. The TGI (NCI-H522 lung) was 3220 nM, the GI50 (NCI/ADR-RES ovarian) was 1700 nM and the TGI (NCI/ADR-RES ovarian) was 4110 nM. The GI50 (OVCAR-4 ovarian) was 1130 nM, the TGI (OVCAR-4 ovarian) was 2370 nM and the GI50 (OVCAR-5 ovarian) was 1920 nM. It also gave a TGI (OVCAR-5 ovarian) of 3460 nM, a GI50 (OVCAR-8 ovarian) of 1570 nM and a TGI (OVCAR-8 ovarian) of 3010 nM. For the same compound, the GI50 (PC-3 prostate) was 1300 nM, the TGI (PC-3 prostate) was 2770 nM and the GI50 (RPMI-8226 leukemia) was 1670 nM. The TGI (RPMI-8226 leukemia) was 5330 nM, the GI50 (RXF 393 renal) was 1570 nM and the TGI (RXF 393 renal) was 2960 nM. The GI50 (SF-268 CNS) was 1550 nM, the TGI (SF-268 CNS) was 3090 nM and the GI50 (SF-295 CNS) was 1860 nM. The TGI (SF-295 CNS) was 3430 nM, the GI50 (SF-539 CNS) was 1680 nM and the TGI (SF-539 CNS) was 3130 nM. For the same compound, the GI50 (SK-MEL-2 melanoma) was 1630 nM, the TGI (SK-MEL-2 melanoma) was 3030 nM and the GI50 (SK-MEL-28 melanoma) was 1730 nM. The TGI (SK-MEL-28 melanoma) was 3140 nM, the GI50 (SK-MEL-5 melanoma) was 1720 nM and the TGI (SK-MEL-5 melanoma) was 3110 nM. It also gave a GI50 (SK-OV-3 ovarian) of 11000 nM, a TGI (SK-OV-3 ovarian) of 30100 nM and a GI50 (SN12C renal) of 1580 nM. For the same compound, the TGI (SN12C renal) was 2990 nM, the GI50 (SNB-19 CNS) was 1680 nM and the TGI (SNB-19 CNS) was 3160 nM. It also gave a GI50 (SNB-75 CNS) of 1460 nM, a TGI (SNB-75 CNS) of 2790 nM and a GI50 (SR leukemia) of 1090 nM. For the same compound, the TGI (SR leukemia) was greater than 100000 nM, the GI50 (SW-620 colon) was 1830 nM and the TGI (SW-620 colon) was 3510 nM. It also gave a GI50 (T-47D breast) of 1010 nM, a TGI (T-47D breast) of 3910 nM and a GI50 (TK-10 renal) of 2300 nM. For the same compound, the TGI (TK-10 renal) was 3770 nM, the GI50 (U251 CNS) was 1800 nM and the TGI (U251 CNS) was 3540 nM. It also gave a GI50 (UACC-257 melanoma) of 1390 nM, a TGI (UACC-257 melanoma) of 2780 nM and a GI50 (UACC-62 melanoma) of 1810 nM. For the same compound, the TGI (UACC-62 melanoma) was 3290 nM, the GI50 (UO-31 renal) was 1430 nM and the TGI (UO-31 renal) was 2750 nM.
